What all share (test): microbe, parasite or virus in culture
Common to all, as to parameters: species or system Staphylococcus aureus clinical blood isolates and ATCC 29213; Broth microdilution MIC in cation-adjusted Mueller-Hinton broth with 50 ug/mL CaCl2, EUCAST reading, 37 C
Background: Dilution methods test growth across graded concentrations, often in twofold steps.

For test [1], the system named is T1, Staphylococcus aureus PB1101.
T1 construct: PB1101
The following applies: PB1101, 16 h, replicate MIC, MHB + 50 ug/mL CaCl2. On the procedure:
(§1) MICs were measured in cation-adjusted Mueller-Hinton broth (MHB) supplemented with 50 μg/mL CaCl2 (MHB-Ca^2+) via broth microdilution in 96-well plates with an inoculum of ∼5 × 10^5 CFU per mL. Antibiotic test concentrations ranged from 0.0625 μg/mL to 32 μg/mL by 2-fold dilutions. Plates were incubated at 37°C for 16 h without shaking, and results were interpreted in accordance with European Committee on Antimicrobial Susceptibility Testing reading guidelines ([72]). S. aureus ATCC 29213 was used as a quality-control strain.

In test [2] the test system is T2, Staphylococcus aureus PB1512.
T2 construct: PB1512
The following applies: PB1512, 16 h, replicate MIC, MHB + 50 ug/mL CaCl2. How it is done:
as §1

Test [3] deals with T3, Staphylococcus aureus PB0207.
T3 construct: PB0207
The following applies: PB0207, 16 h, replicate MIC, MHB + 50 ug/mL CaCl2. On the procedure:
as §1

Test [4] has as its system T4, Staphylococcus aureus PB1406.
T4 construct: PB1406
Conditions: PB1406, 16 h, replicate MIC, MHB + 50 ug/mL CaCl2. How it is done: as §1

Test [5] deals with T5, Staphylococcus aureus PB0409.
T5 construct: PB0409
The following applies: PB0409, 16 h, replicate MIC, MHB + 50 ug/mL CaCl2. On the procedure: as §1

Test [6] has as its system T6, Staphylococcus aureus PB0701.
T6 construct: PB0701
Conditions: PB0701, 16 h, replicate MIC, MHB + 50 ug/mL CaCl2. How it is done:
as §1

For test [7], the system named is T7, Staphylococcus aureus PB0411.
T7 construct: PB0411
The following applies: PB0411, 16 h, replicate MIC, MHB + 50 ug/mL CaCl2. How it is done:
as §1

For test [8], the system named is T8, Staphylococcus aureus PB1802.
T8 construct: PB1802
The following applies: PB1802, 16 h, replicate MIC, MHB + 50 ug/mL CaCl2. How it is done: as §1

The test system of test [9] is T9, Staphylococcus aureus PB1511.
T9 construct: PB1511
Conditions: PB1511, 16 h, replicate MIC, MHB + 50 ug/mL CaCl2. On the procedure:
as §1

Test [10] concerns T10, Staphylococcus aureus PB0102.
T10 construct: PB0102
Conditions: PB0102, 16 h, replicate MIC, MHB + 50 ug/mL CaCl2. How it is done: as §1

Structures are written as SMILES. Values joined by “and” are separate entries in the source; they are usually repeats but may differ in a detail not shown here. Identical values can stand only once.

As to `CCO/N=C(\C(=O)N[C@@H]1C(=O)N2C(C(=O)[O-])=C(Sc3nc(-c4cc[n+](C)cc4)cs3)CS[C@H]12)c1nsc(N)n1` [Ceftaroline], the MIC in test [1] amounted to 0.5 µg/mL; in [2] it was 0.5 µg/mL; in [3] it was 0.5 µg/mL; in test [4] it was 0.25 µg/mL; in [5], 0.5 µg/mL; in test [6], 0.25 µg/mL. In addition, the MIC in test [7], in test [8], in test [9] and in test [10] was 0.5 µg/mL each time.

For the compound `CCCCCCCCCC(=O)N[C@@H](Cc1c[nH]c2ccccc12)C(=O)N[C@H](CC(N)=O)C(=O)N[C@@H](CC(=O)O)C(=O)N[C@@H]1C(=O)NCC(=O)N[C@@H](CCCN)C(=O)N[C@@H](CC(=O)O)C(=O)N[C@H](C)C(=O)N[C@@H](CC(=O)O)C(=O)NCC(=O)N[C@H](CO)C(=O)N[C@@H]([C@H](C)CC(=O)O)C(=O)N[C@@H](CC(=O)c2ccccc2N)C(=O)O[C@@H]1C` [Daptomycin], the MIC in test [1] was 2 µg/mL; in [2], 1 µg/mL; in test [3], 1 µg/mL; in [4] it was 1 µg/mL; in test [5], 1 µg/mL; in test [6], 1 µg/mL and 2 µg/mL. Moreover, the MIC turned out to be 1 µg/mL in test [7], 2 µg/mL in [8], 2 µg/mL in test [9] and 2 µg/mL in [10].

Turning to `CC(=O)NC[C@H]1CN(c2ccc(N3CCOCC3)c(F)c2)C(=O)O1` [Linezolid], the MIC in test [1], in test [2], in [3], in [4], in test [5] and in [6] was 4 µg/mL in each case. In addition, the MIC in test [7], in test [8], in [9] and in test [10] was 4 µg/mL in each case.

As to `CN[C@H](CC(C)C)C(=O)N[C@H]1C(=O)N[C@@H](CC(N)=O)C(=O)N[C@H]2C(=O)N[C@H]3C(=O)N[C@H](C(=O)N[C@H](C(=O)O)c4cc(O)cc(O)c4-c4cc3ccc4O)[C@H](O)c3ccc(c(Cl)c3)Oc3cc2cc(c3O[C@@H]2O[C@H](CO)[C@@H](O)[C@H](O)[C@H]2O[C@H]2C[C@](C)(N)[C@H](O)[C@H](C)O2)Oc2ccc(cc2Cl)[C@H]1O` [Vancomycin], the MIC is 2 µg/mL in test [1]; 2 µg/mL in test [2]; 2 µg/mL and 1 µg/mL in [3]; 2 µg/mL in [4]; 2 µg/mL in test [5]; 2 µg/mL in test [6]. In addition, the MIC in test [7], in test [8], in [9] and in test [10] was 2 µg/mL throughout.
